Series [1] is described as follows: Rate of release of chlorhexidine/fatty acid salts from coated polyurethane tubes into DI water. To be noted: for Cumulative release of the chlorhexidine/fatty acid salts from the coated polyurethane tubes: 1 cm coated tube in DI water, 37° C.; for Time by which approximately all of the salt was released from the coated sample: coated polyurethane tube in DI water. In kind it is physicochemical. The protocol: A solution of each respective chlorhexidine/fatty acid salt was prepared and used to infuse a sample of elastomeric material. To perform the test, individual samples, 8 cm pieces of polyurethane tube containing a colorant, were surface dip coated in respective solutions of the chlorhexidine/fatty acid salts. The solutions were prepared as follows: 8.6 g of Tecoflex (Noveon, Cleveland, Ohio) was dissolved in 174 g of Tetrahydrofuran and methanol. 5.88 g of chlorhexidine acetate, chlorhexidine laurate, chlorhexidine myristate, chlorhexidine palmitate and chlorhexidine stearate were individually dissolved into the polymer-solvent mixture. The samples were immersed into the solvent-polymer-salt mixture and then dried at room temperature, evaporating the solvent. A polymeric coating was produced on the surface of the tubes. The amounts of chlorhexidine/fatty acid salt adhered per cm of the tube was measured (Table 2) by exhaustively extracting the salt and measuring UV absorbance at 253 nm relative to controls: For each of the samples, the rate of release of chlorhexidine/fatty acid salts into an aqueous solution was determined. To perform the rate of release test, 1 cm from each of the coated polyurethane tubes, were submerged in DeIonized (DI) water and incubated at 37° C. for a period of 28 days to determine the rate of release of the salts from the respective 1 cm samples of coated polyurethane tubing. The water was collected and replaced with fresh water after approximately 2 hours. The water was again collected and replaced with fresh water after the first day and every seven days thereafter. The amount of chlorhexidine/fatty acid salt in the collected water was measured with an Agilent 8453 UV-Vis Diode Array Detector with a manual setup using a cuvette w/path length of 1 cm. Chlorhexidine absorbance was read at 253 nm and concentration was calculated via a calibration curve developed using standards of 1, 5, 10, 20, 30, 35, and 40 μg/mL chlorhexidine acetate in DI Water. The percentage of chlorhexidine/fatty acid salt released from the sample into an aqueous media (percent release) was calculated according to the following equation: Percent release=(cumulative release at that time period/initial content)*100.

Series [2] relates to Candida albicans ATCC 10231. Kind of series: Zone of inhibition assay with impregnated polyurethane foam discs. In kind it is cell-based. To be noted: for Zone of inhibition compared with the other salts (in words): impregnated polyurethane foam, after several daily transfers / over the 9 day assay. The protocol:
To evaluate antimicrobial properties of polyurethane foam samples infused with the various chlorhexidine/fatty acid salts, a zone of inhibition assay was performed. In this assay, 1.4% (w/v) of chlorhexidine acetate, chlorhexidine caprate, chlorhexidine laurate, chlorhexidine myristate, chlorhexidine palmitate and chlorhexidine stearate solutions in methanol were prepared. A supply of 8 mm discs were punched out of a sheet of polyurethane foam (Rynel medical grade polyurethane foam) with biopsy punches (Miltex Kai). Several discs were placed in each of six 50 ml centrifuge tubes. Approximately 5 ml of each of the different methanol/chlorhexidine/fatty acid salt solutions was added to each respective tube. The discs were centrifuged for 5 minutes to remove any air bubbles and soaked for 1 hr to infuse the foam discs with the respective chlorhexidine/fatty acid salt. Infused discs were transferred to clean centrifuge tubes and vacuum dried at 25° C. for 24 hrs to remove any residual solvents. Initial concentrations of salts, impregnated into the punches, were determined by dissolving the impregnated foams and by high pressure liquid chromatography (HPLC) analysis using an Agilent Eclipse XDB-CN 3u 4.6×150 mm column with initial mobile phase=65% DI water/0.2% trifluoroacetic acid (TFA): 35% Acetonitrile/0.2% TFA. Chlorhexidine absorbance was read at 253 nm and concentration was calculated via a chlorhexidine calibration curve. […] To perform the zone of inhibition assay on the impregnated polyurethane foam discs, agar plates were prepared by mixing 11 g Mueller-Hinton cation-adjusted broth and 1.5 g agarose in 500 ml DI water. The agar was autoclaved for 15 minutes at 121° C., 15 psi. 10 ml of the still hot, liquid agar was pipetted onto petri dishes. The challenge organism, Candida albicans ATCC 10231, was cultivated in Trypticase soy broth, standard microbiological growth medium (TSB). Sterile cotton swabs were dipped into the undiluted culture and the plated agar was fully inoculated with swabs. The 8 mm polyurethane foam discs were transferred daily to a freshly inoculated agar for 9 days. The zone of inhibition (ZOI) was measured using calipers. Actual ZOI was measured by subtracting the diameter of the foam (when wet) from the zone measured and dividing by 2. The results are presented in Table 6, with a graphical representation of the ZOI in FIG. 2;

For series [3], the system named is Pseudomonas aeruginosa ATCC 27853. Kind of series: Basic broth adherence assay on coated polyurethane tubes. In kind it is cell-based. To be noted: for Inhibition of adherence / antimicrobial effect against Pseudomonas aeruginosa (in words): coated polyurethane tubes compared to uncoated control. The protocol: The antimicrobial effectiveness of the coated samples was subjected to different durations of DI water extraction by basic broth adherence assay. For each chlorhexidine/fatty acid salt tested, 3 samples of coated tubing were prepared and assayed. To prepare the inoculum, a culture of Pseudomonas aeruginosa ATCC 27853 was used to challenge the coated polyurethane tubes and controls. The negative control used was a length of uncoated polyurethane tube. The challenge microorganism suspension was prepared as follows: approximately three colonies were removed from a secondary working culture plated on Trypticase Soy Agar (TSA) (BD-Falcon) with 5% sheep's blood and added to 10 ml of Trypticase Soy Broth (TSB). The vial was vortexed for approximately 30 seconds and incubated for 4 hours at 37° C. at 100 rpm. Following incubation, the vial was removed and vortexed. The optical density of the organism suspension was read. The inoculum was then diluted in TSB to a concentration of 5×10^4 colony forming units per milliliter (CFU/mL). This concentration was confirmed by the Miles and Misra drop count method.
The basic broth adherence assay was performed in a 96 well micro titer plate. To each well of the micro titer plate containing either a test article or a control, 900 μl of TSB was added. To this, 100 μl of the adjusted inoculum was added (Note: Due to the 1/10 dilution per well, the starting inoculum concentration of each organism was […] for Pseudomonas aeruginosa). The micro titer plates were then sealed via parafilm® around the edges and wrapped in foil to avoid evaporation of liquid and light contact with the samples. The plates were then placed inside a shaker incubator set at 37° C. and 100 rpm for 24 hours. Incubation at 37° C. then continued until the elapse of 7 days, 14 days, and 21 days, respectively, for each of the 3 samples prepared for each chlorhexidine/fatty acid salt.
At the completion of the respective incubation periods, the samples were rinsed, sonicated, the sonicate was plated and adherence was evaluated. More particularly, following incubation, all samples and controls were dip-rinsed twice in phosphate buffered saline (PBS) to remove the surrounding media. After rinsing, test articles were sonicated in micro titer plate wells containing 1 mL of Dey-Engley (DE) neutralizing broth (Difco). The sonication liquid was then serially diluted, and plated onto the surface of DE neutralizing agar. Plates were incubated at 37° C. for 24 to 48 hours and colonies were counted. Recovery counts were recorded as CFU/mL.

Series [4] in a line: Incorporation of chlorhexidine salts into silicone tubing (swelling impregnation, extraction, HPLC).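 As to Salt content in silicone elastomeric medical article: columns differ by chlorhexidine salt concentration in the impregnation solution.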 Format: physicochemical. The settings on record: for Salt content in silicone elastomeric medical article: one day, equivalent mass of chlorhexidine base extracted. The protocol: Chlorhexidine diacetate, Chlorhexidine dodecanoate and chlorhexidine palmitate were loaded into silicone tubing by first dissolving the chlorhexidine salt in a 90% THF+10% Methanol solution.
Impregnated chlorhexidine was extracted from the tubing by immersing in an excess of THF to fully swell it and then adding an equal volume of water to extract the chlorhexidine salt. The quantity of chlorhexidine was determined by previously enumerated HPLC method. It is reported below for different concentration impregnation solutions in terms of the equivalent mass of chlorhexidine base extracted: […]

[5] abbreviates: Day 1, daily transfer to fresh agar.
Where [6] appears, read: Day 2, daily transfer to fresh agar.
[7] abbreviates: Day 3, daily transfer to fresh agar.
Setting [8] is: Day 4, daily transfer to fresh agar.
The mark [9] stands for this setting: Day 7, daily transfer to fresh agar.
Setting [10] is: Day 8, daily transfer to fresh agar.
[11] abbreviates: Day 9, daily transfer to fresh agar.
Where [12] appears, read: 1% impregnation solution in 90% THF+10% Methanol.
[13] abbreviates: 3% impregnation solution in 90% THF+10% Methanol.
Setting [14] is: 6% impregnation solution in 90% THF+10% Methanol.
Setting [15] is: 10% impregnation solution in 90% THF+10% Methanol.

Consider two compounds from patent US20100069854A1, “Elastomeric Devices Containing Chlorhexidine/Fatty Acid Salts Made From Fatty Acids of 12 to 18 Carbons” (priority 2008, published 2010).

For the compound `CCCCCCCCCCCC(=O)O.NC(=NCCCCCCN=C(N)N=C(N)Nc1ccc(Cl)cc1)N=C(N)Nc1ccc(Cl)cc1` [Chlorhexidine Laurate, chlorhexidine dilaurate], the “Cumulative release of the chlorhexidine/fatty acid salts from the coated polyurethane tubes” value in series [1] (Day 1) amounted to 62 g; in series [1] (Day 7), 145 g; in series [1] (Day 14) it was 165 g; in series [1] (Day 21), 167 g; in series [1] (Day 28), 167 g. Also, in series [1], the “Time by which approximately all of the salt was released from the coated sample” value is listed as not above 14 days. For the same compound, the “ZOI produced by impregnated polyurethane foam punches against Candida albicans” value (“ZOI produced” below) in series [2] (setting [5]) was found to be 27 mm; in series [2] (setting [6]), 31 mm; in series [2] (setting [7]), 32 mm; in series [2] (setting [8]), 27 mm; in series [2] (setting [9]), 23 mm; in series [2] (setting [10]), 31 mm. Moreover, the “ZOI produced” value in series [2] (setting [11]) amounted to 29 mm. In addition, the “Zone of inhibition compared with the other salts (in words)” value in series [2] is listed as “relatively largest ZOI”. Besides, the “Log10 reduction of adhered Pseudomonas aeruginosa onto the surface of coated polyurethane tubes” value is on record as 7 in series [3] (7 days), 0 in series [3] (14 days) and 0 in series [3] (21 days). For the same compound, the “Inhibition of adherence / antimicrobial effect against Pseudomonas aeruginosa (in words)” value in series [3] is “inhibition was not apparent at 14 days or thereafter”. In addition, the “Salt content in silicone elastomeric medical article” value in series [4] (setting [12]) is 249 µg/cm; in series [4] (setting [13]), 408 µg/cm; in series [4] (setting [14]) it was 526 µg/cm; in series [4] (setting [15]), 614 µg/cm. Also, in series [4] (silicone tubing, 90% THF+10% Methanol), the “Absorption into silicone tubing compared with the other salts (in words)” value is “absorbed at much higher concentrations than the other salts”.

As for `CC(=O)O.CC(=O)O.NC(=N\CCCCCC/N=C(N)/N=C(\N)Nc1ccc(Cl)cc1)/N=C(\N)Nc1ccc(Cl)cc1` [Chlorhexidine Acetate, chlorhexidine diacetate, reference compound], the “Cumulative release of the chlorhexidine/fatty acid salts from the coated polyurethane tubes” value was 155 g in series [1] (Day 1); 222 g in series [1] (Day 7); 224 g in series [1] (Day 14); 224 g in series [1] (Day 21); 224 g in series [1] (Day 28). The “Time by which approximately all of the salt was released from the coated sample” value in series [1] is listed as not above 7 days. In addition, in series [1] (within 1 day (FIG. 1)), the “Percent release of the initial salt concentration from the coated sample” value was “approximately 70%”. Besides, the “ZOI produced” value in series [2] (setting [5]) amounted to 12 mm; in series [2] (setting [6]) it was 11 mm; in series [2] (setting [7]), 14 mm; in series [2] (setting [8]), 8 mm; in series [2] (setting [9]), 8 mm; in series [2] (setting [10]) it was 12 mm. The “ZOI produced” value in series [2] (setting [11]) was 12 mm. The “Zone of inhibition compared with the other salts (in words)” value in series [2] is listed as “zones of inhibition that were smaller”. Besides, the “Log10 reduction of adhered Pseudomonas aeruginosa onto the surface of coated polyurethane tubes” value turned out to be 5 in series [3] (7 days), 0 in series [3] (14 days) and 0 in series [3] (21 days). The “Inhibition of adherence / antimicrobial effect against Pseudomonas aeruginosa (in words)” value in series [3] (listed as chlorhexidine acetate) is listed as “inhibition was not apparent at 14 days or thereafter”; in series [3] (listed as chlorhexidine diacetate), “not able to provide an antimicrobial effect against Pseudomonas aeruginosa after 7 days”. Further, the “Salt content in silicone elastomeric medical article” value is 262 µg/cm in series [4] (setting [12]), 395 µg/cm in series [4] (setting [13]), 374 µg/cm in series [4] (setting [14]) and 439 µg/cm in series [4] (setting [15]).
